# Laboratory results from paper PMC5618426, “APETx4, a Novel Sea Anemone Toxin and a Modulator of the Cancer-Relevant Potassium Channel KV10.1” (Marine Drugs, 2017).
# Positions of bridges follow the written chain, without caps; N, C: chain ends. No end group written: not given here.
# System: Xenopus oocytes
sequence,measurement,value
"GTTCYCGKTIGIYWFGKYSCPTNRGYTGSCPYFLGICCYPVD (disulfide 4-37, 6-30, 20-38) [APETx4]",cytotoxic effect in Xenopus oocytes,cytotoxic effect is not observed
